Patent US20110064713A1 (priority 2009, published 2011)

Test system: DU-145 cells
Assay type: cell-based, Human

Structure (SMILES): C=C1[C@@H](C)[C@H]2[C@H](Cc3ccccc3)NC(=O)[C@]23[C@H](OC(C)=O)/C=C/[C@@](C)(O)C(=O)[C@@H](C)C/C=C/[C@H]3[C@@H]1O [Cytochalasin-D]
- Relative Wound Density at 24 Hours, Mean: 3.3 ± 0.2
- Relative Wound Density at 24 Hours, Percent Relative to Media: 4%
- effect on cell migration: did not migrate
